Test results: the supplement of paper PMC10307832

How the values were obtained:
Assay in all cases: relative viability (nuclei count vs DMSO), 5 days (fraction); higher = more cells survive
Tozasertib + Vorinostat = compound: Cc1cc(Nc2cc(N3CCN(C)CC3)nc(Sc3ccc(NC(=O)C4CC4)cc3)n2)n[nH]1 [Tozasertib] + O=C(CCCCCCC(=O)Nc1ccccc1)NO [Vorinostat] (partner 1 µM)
In short: (§1)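 Lung cancer cell lines in 1536-well plates were dosed by pin tool the day after seeding, either with one drug alone or with a fixed anchor-drug dose plus five library-drug doses (not always all listed) in √10 steps. After 5 days, cells were fixed and their nuclei stained in one step (final 0.05% Triton X-100, 1% formaldehyde, 1 ug/ml Hoechst), then counted on 4× images. Relative viability is the nuclei count in treated wells divided by that in vehicle wells. Values are medians of duplicate plates.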

Tozasertib + Palbociclib = compound: Cc1cc(Nc2cc(N3CCN(C)CC3)nc(Sc3ccc(NC(=O)C4CC4)cc3)n2)n[nH]1 [Tozasertib] + CC(=O)c1c(C)c2cnc(Nc3ccc(N4CCNCC4)cn3)nc2n(C2CCCC2)c1=O [Palbociclib] (partner 0.5 µM)
In short: as §1

Tozasertib + Navitoclax = compound: Cc1cc(Nc2cc(N3CCN(C)CC3)nc(Sc3ccc(NC(=O)C4CC4)cc3)n2)n[nH]1 [Tozasertib] + CC1(C)CCC(c2ccc(Cl)cc2)=C(CN2CCN(c3ccc(C(=O)NS(=O)(=O)c4ccc(N[C@H](CCN5CCOCC5)CSc5ccccc5)c(S(=O)(=O)C(F)(F)F)c4)cc3)CC2)C1 [Navitoclax] (partner 0.5 µM)
In short: as §1

Tozasertib + Dasatinib = compound: Cc1cc(Nc2cc(N3CCN(C)CC3)nc(Sc3ccc(NC(=O)C4CC4)cc3)n2)n[nH]1 [Tozasertib] + Cc1nc(Nc2ncc(C(=O)Nc3c(C)cccc3Cl)s2)cc(N2CCN(CCO)CC2)n1 [Dasatinib] (partner 0.075 µM)
In short: as §1

Tozasertib + OSI-027 = compound: Cc1cc(Nc2cc(N3CCN(C)CC3)nc(Sc3ccc(NC(=O)C4CC4)cc3)n2)n[nH]1 [Tozasertib] + COc1cccc2cc(-c3nc([C@H]4CC[C@H](C(=O)O)CC4)n4ncnc(N)c34)[nH]c12 [OSI-027] (partner 0.5 µM)
In short: as §1

| Cell Line | relative viability (Tozasertib + Vorinostat; first compound 0.004 µM) | relative viability (Tozasertib + Vorinostat; first compound 0.01265 µM) | relative viability (Tozasertib + Vorinostat; first compound 0.04 µM) | relative viability (Tozasertib + Vorinostat; first compound 0.1265 µM) | relative viability (Tozasertib + Palbociclib; first compound 0.004 µM) | relative viability (Tozasertib + Palbociclib; first compound 0.01265 µM) | relative viability (Tozasertib + Palbociclib; first compound 0.04 µM) | relative viability (Tozasertib + Palbociclib; first compound 0.1265 µM) | relative viability (Tozasertib + Navitoclax; first compound 0.004 µM) | relative viability (Tozasertib + Navitoclax; first compound 0.01265 µM) | relative viability (Tozasertib + Navitoclax; first compound 0.04 µM) | relative viability (Tozasertib + Navitoclax; first compound 0.1265 µM) | relative viability (Tozasertib + Dasatinib; first compound 0.004 µM) | relative viability (Tozasertib + Dasatinib; first compound 0.01265 µM) | relative viability (Tozasertib + Dasatinib; first compound 0.04 µM) | relative viability (Tozasertib + Dasatinib; first compound 0.1265 µM) | relative viability (Tozasertib + OSI-027; first compound 0.004 µM) | relative viability (Tozasertib + OSI-027; first compound 0.01265 µM) | relative viability (Tozasertib + OSI-027; first compound 0.04 µM) | relative viability (Tozasertib + OSI-027; first compound 0.1265 µM) |
| --- | --- | --- | --- | --- | --- | --- | --- | --- | --- | --- | --- | --- | --- | --- | --- | --- | --- | --- | --- | --- |
| HCC-366 | 0.371 | 0.3 | 0.198 | 0.0431 | 0.4 | 0.391 | 0.502 | 0.227 | 1.09 | 0.945 | 1.17 | 0.752 | 0.612 | 0.682 | 0.677 | 0.629 | 0.991 | 0.862 | 1.01 | 0.575 |
| HCC-827 | 0.87 | 0.835 | 0.89 | 0.584 | 0.511 | 0.516 | 0.603 | 0.493 | 0.973 | 1.09 | 1.03 | 0.925 | 0.299 | 0.282 | 0.352 | 0.345 | 0.314 |  | 0.789 | 0.582 |
| HOP-62 | 0.621 | 0.483 | 0.628 | 0.462 | 0.53 | 0.483 | 0.556 | 0.439 | 1.06 | 0.946 | 1.08 | 0.99 | 0.676 | 0.615 | 0.672 | 0.668 | 0.902 | 0.844 | 0.941 | 0.793 |
| LC-2-ad | 0.762 | 0.631 | 0.613 | 0.272 | 0.503 | 0.529 | 0.442 | 0.477 | 0.412 | 0.431 | 0.396 | 0.147 | 0.624 | 0.565 | 0.482 | 0.236 | 0.941 | 0.692 | 0.734 | 0.374 |
| LCLC-97TM1 | 0.69 | 0.639 | 0.644 | 0.153 | 0.232 | 0.223 | 0.222 | 0.21 |  | 0.434 | 0.466 | 0.242 | 0.809 | 0.695 | 0.948 | 0.783 | 0.571 | 0.507 | 0.526 | 0.371 |
| LCLC-103H | 0.842 | 0.863 | 0.743 | 0.544 | 0.481 | 0.45 | 0.502 | 0.52 |  |  |  |  | 0.539 | 0.452 | 0.456 | 0.478 | 0.504 |  | 0.503 | 0.388 |
| LK-2 | 0.287 | 0.321 | 0.28 | 0.197 | 0.736 | 0.782 | 0.887 | 0.378 | 0.878 | 0.736 | 0.981 | 0.392 | 0.262 | 0.39 | 0.285 | 0.23 | 0.184 | 0.199 | 0.198 | 0.182 |
| LOU-NH91 | 0.761 | 0.889 | 0.983 | 0.707 | 0.526 | 0.536 | 0.512 | 0.529 | 0.426 | 0.704 | 0.726 | 0.665 |  | 0.519 | 0.573 | 0.499 |  | 0.675 | 0.763 | 0.728 |
| LU99A | 0.544 | 0.423 | 0.428 | 0.339 | 0.423 | 0.386 | 0.369 | 0.324 | 0.739 | 0.636 | 0.715 | 0.414 | 0.751 | 0.513 | 0.547 | 0.373 | 0.307 | 0.278 | 0.269 | 0.269 |
| NCI-H358 | 0.626 | 0.648 | 0.361 | 0.15 | 0.14 | 0.135 | 0.168 | 0.0747 |  |  |  |  | 0.154 | 0.152 | 0.187 | 0.121 | 0.779 | 0.803 | 0.982 | 0.125 |
| NCI-H522 | 0.917 | 1.14 | 0.759 | 0.782 | 1.03 | 1.02 | 1.06 | 0.749 |  |  |  |  | 0.836 | 1.12 | 1.01 | 0.725 | 0.773 | 0.838 | 0.783 | 0.628 |
| NCI-H596 | 0.655 | 0.538 | 0.72 | 0.451 |  |  |  |  | 1.05 | 0.815 | 1.07 | 0.827 | 0.555 | 0.589 | 0.645 | 0.53 | 0.785 | 0.628 | 0.797 | 0.771 |
| NCI-H650 | 0.448 | 0.4 | 0.568 | 0.389 | 0.362 | 0.288 | 0.317 | 0.313 |  |  |  |  | 0.577 | 0.384 | 0.452 | 0.389 | 0.549 | 0.512 | 0.535 | 0.452 |
| NCI-H661 | 0.912 | 0.806 | 0.549 | 0.312 | 0.412 | 0.406 | 0.425 | 0.299 |  |  |  |  | 1.12 | 0.85 | 0.699 | 0.249 | 0.731 | 0.747 | 0.722 | 0.302 |
| NCI-H1563 |  |  |  |  |  |  |  |  |  |  |  |  | 0.567 | 0.481 | 0.541 | 0.453 |  | 0.763 | 0.713 | 0.701 |
| NCI-H1703 |  |  |  |  |  |  |  |  | 1.35 | 1.14 | 1.26 | 0.366 |  |  |  |  |  |  |  |  |
| NCI-H1792 |  |  |  |  | 0.731 | 0.594 | 0.758 | 0.61 | 0.681 | 0.481 |  | 0.418 | 0.7 | 0.594 | 0.888 | 0.694 | 0.716 | 0.579 | 0.81 | 0.621 |
| NCI-H2342 | 0.77 | 0.78 | 0.782 | 0.597 | 0.491 | 0.511 | 0.476 | 0.531 |  |  |  |  | 0.338 | 0.293 | 0.314 | 0.292 | 0.654 | 0.525 | 0.657 | 0.582 |
| SW 900 | 0.579 | 0.436 |  | 0.266 | 0.62 | 0.536 | 0.542 | 0.382 |  |  |  |  | 0.79 | 0.51 | 0.503 | 0.567 | 0.767 | 0.54 | 0.75 | 0.28 |
